Measured values as given in patent publication US20260026529A1, “MATERIALS AND METHODS FOR THE MANUFACTURE OF AN ANIMAL FEED” (In the Bowl Animal Health, Inc., priority 2023, published 2026).
Where a name gives a salt, the structure may show the parent alone. Marks after values point to notes of the source that are not given here.

How the values were obtained:
[1] = Solubility of active ingredients in liquid carriers, transmissivity measurement with a crystallizer multi-reactor
Excerpt: To determine the solubility of various active ingredients that could be incorporated into pet food, each active ingredient may be evaluated in a temperature dependent manner using a crystallizer multi-reactor with transmissivity measurements.
Carrier of interest may be prepared as needed and specific active ingredients may be added to the solvents to form mixtures of the solvent and active. […] If mixing and/or heating fails to provide visual evidence that an active ingredient dissolves in the test solvent carrier no further solubility testing of the active ingredient with the test carrier can be conducted.
For active ingredients that appear to at least partially dissolve in a given carrier, the mixtures can be analyzed by transmissivity measurement using a crystallizer multi-reactor. Prior to the transmissivity measurement using a crystallizer multi-reactor with transmissivity capability, carriers may be prepared, as needed, and subsequently tested using a heating cycle over a range of temperatures. The transmissivity data can be recorded over the temperature ranges and used as a blank or reference in subsequent transmissivity measurements.
Typically, initial samples including the active ingredient of interest and the test carrier are not readily soluble at room temperature and may register low percent transmissivity along with visible observations of insolubilized material. When resulting admixtures are heated at a specific heating rate, the percent transmissivity increases as the active ingredient is solubilized. When the solids are completely dissolved, the transmissivity is measured as 100%. When the resulting heated admixture is subsequently cooled, solids may precipitate at a given temperature and cooling rate, which results in a decrease in percent transmissivity. The temperature and time at which precipitation occurs with a specific admixture provides additional information regarding solubility and the combination of parameters needed for selection to prepare feed with the active ingredient of interest.
Carriers include, refined chicken fat, refined chicken fat including lecithin, refined chicken fat including Tween80, refined chicken fat including triacetin, and triacetin may be used as carrier systems over a range of temperatures, ramp rates, stirring rates, and cooling cycles to evaluate stability.
Admixture experiments may be performed with active ingredients including, e.g., mivorilaner, sarolaner, lotilaner, fluralaner, afoxolaner, spinosad, pyrantel, praziquantel, fenbendazole, diethylcarbamazine, moxidectin, gabapentin and metformin in combination with different test carriers using the methodology described herein. “Apparent solubility” is a term used herein to denote that the admixture may be a true solution, i.e., an admixture in which the active ingredient completely dissolves into the carrier liquid. However, the term “apparent solubility” also can include suspensions and emulsions, for example, which resemble a true solution but are not.

[2] = Solubility of mivorilaner in carriers under isothermal conditions; format: physicochemical
Description: The solubility of mivorilaner in a number of carriers was also measured under isothermal conditions.

Row | SMILES | Measured Concentration ([1]; carrier CF, Up to 60 ° C.) [mg/g] | Measured Concentration ([1]; carrier Triacetin, 20-22 ° C.) [mg/g] | Time to Achieve Apparent Solubility ([1]; carrier CF, Up to 60 ° C.) | Time to Achieve Apparent Solubility ([1]; carrier Chicken Fat + Tween 80, 2.0 mg/g, 40 ° C.) | Effect of the presence of lecithin on solubility ([1]; chicken fat vs chicken fat including 4% (w/w) lecithin, 2-16 mg/g, 0.1° C./minute, 39° C. to 60° C., FIG. 5) | Solubility in a combination of chicken fat and lecithin ([2]; chicken fat and lecithin) | Solubility observation, chicken fat only ([2]; chicken fat only, all experiments)
1 | CN(C)C(=N)N=C(N)N [Metformin-HCI, Metformin HCl] | 0 | <1 | – | – | – | – | –
2 | NCC1(CC(=O)O)CCCCC1 [Gabapentin] | 0 | <1 | Insoluble | – | – | – | –
3 | O=C(CNC(=O)c1sc(C2=NO[C@@](c3cc(Cl)c(F)c(Cl)c3)(C(F)(F)F)C2)c2c1CCC2)NCC(F)F [Mivorilaner] | – | – | – | 1.5** hours | increased mivorilaner solubility | soluble over a wide range of concentrations and temperatures | visible detection of agglomerates was noted in all experiments
